{"source": "patent US11111232B2", "about": "“Substituted cyclobutylpyridine and cyclobutylpyrimidine compounds as indoleamine 2,3-dioxygenase (IDO) inhibitors” (MERCK SHARP & DOHME CORP., priority 2017, dated 2021)", "key": {"IDO1": {"biological_target": "IDO1 (Homo sapiens, UniProt P14902)", "sequence (P14902 whole entry)": "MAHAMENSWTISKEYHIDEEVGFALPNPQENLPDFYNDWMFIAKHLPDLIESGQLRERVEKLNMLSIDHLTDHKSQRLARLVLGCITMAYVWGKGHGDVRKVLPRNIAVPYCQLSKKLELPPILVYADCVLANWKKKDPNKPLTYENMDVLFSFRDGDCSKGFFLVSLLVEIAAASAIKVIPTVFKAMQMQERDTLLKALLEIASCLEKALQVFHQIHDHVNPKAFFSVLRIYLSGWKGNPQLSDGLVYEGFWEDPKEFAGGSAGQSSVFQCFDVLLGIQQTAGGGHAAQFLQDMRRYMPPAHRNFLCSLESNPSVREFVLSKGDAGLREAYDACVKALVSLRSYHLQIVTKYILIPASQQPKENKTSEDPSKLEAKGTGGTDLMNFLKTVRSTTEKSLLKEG", "assay": "IDO1 human whole blood assay", "format": "cell-based", "set-up": "Human whole blood was drawn in sodium heparin coated tubes from healthy internal donors; from tissue; host or cells: human whole blood from healthy donors, stimulated with LPS and IFNγ", "conditions": "LPS and IFNγ 100 ng/mL, 18 h, kynurenine by LC/MS/MS", "experimental": "IDO1Human Whole Blood Assay\nCompounds to be tested were serially diluted in ten 3-fold steps in DMSO starting from 10 mM. […] LPS and IFNγ was prepared in RPMI to a 10× of final conc. (1000 ng/mL), final concentration is 100 ng/mL.\nHuman whole blood was drawn in sodium heparin coated tubes from healthy internal donors. […] of blood was transferred to each of the wells of a v-bottom 96 well plate. […] of compound was transferred from intermediate dilution plate, and incubated for 15 min. 30 μL from stimulants was then transferred to blood and mixed thoroughly. Plate was covered with breathable membrane and incubated at 37° C. for overnight (18 h).\nOn day 2 isotope labeled standard of kynurenine and tryptophan was made in water at 10× concentration and […] was added to the blood at […] final concentration. The assay plates were centrifuged at 300×G for 10 min with no brake to separate plasma from red blood cells. […] of plasma samples was removed without disturbing red blood cells. Plasma was diluted with RPMI in 1:1 ratio and proteins were precipitated out with two volume of Acetonitrile. The plates was centrifuged at 4000×G for 60 min. 20 mL of supernatant was carefully transferred to a 384 well plate contain 40 mL of 0.1% formic acid in water and analyzed by LC/MS/MS.\nLC/MS/MS analyses were performed using Thermo Fisher's LX4-TSQ Quantum Ultra system. This system consists of four Agilent binary high-performance liquid chromatography (HPLC) pumps and a TSQ Quantum Ultra triple quadruple MS/MS instrument. For each sample, […] were injected onto an Atlantis T3 column (2.1 mm×150 mm, […]) from Waters. The mobile phase gradient pumped at 0.8 mL/min was used to elute the analytes from the column at 25° C. […] Mobile phase A consisted of 0.1% formic acid in water. Mobile phase B consisted of 0.1% of formic acid in acetonitrile. Data was acquired in positive mode using a HESI interface. The operational parameters for the TSQ Quantum Ultra instrument were a spray voltage of 4000 V, capillary temperature of 380° C., vaporizer temperature 400° C., shealth gas 60 arbitrary units, Aux gas 20 arbitrary units, tube lens 85 and collision gas 1.2 mTorr. […] The peak area was integrated by Xcalibur Quan software. The ratios between the kynurenine generated in the reaction and 2D6-Kynurenine spiked-in internal standard were used to generate percentage inhibition and IC50 values. Compounds were titrated and IC50′s were calculated by 4 parameter sigmoidal curve fitting formula."}, "TDO": {"biological_target": "T1, TDO (Homo sapiens, UniProt P48775)", "T1 construct": "endogenous in cells; host or cells: SW48 cells (A2780 cells as low-TDO control)", "T1 sequence (P48775 whole entry)": "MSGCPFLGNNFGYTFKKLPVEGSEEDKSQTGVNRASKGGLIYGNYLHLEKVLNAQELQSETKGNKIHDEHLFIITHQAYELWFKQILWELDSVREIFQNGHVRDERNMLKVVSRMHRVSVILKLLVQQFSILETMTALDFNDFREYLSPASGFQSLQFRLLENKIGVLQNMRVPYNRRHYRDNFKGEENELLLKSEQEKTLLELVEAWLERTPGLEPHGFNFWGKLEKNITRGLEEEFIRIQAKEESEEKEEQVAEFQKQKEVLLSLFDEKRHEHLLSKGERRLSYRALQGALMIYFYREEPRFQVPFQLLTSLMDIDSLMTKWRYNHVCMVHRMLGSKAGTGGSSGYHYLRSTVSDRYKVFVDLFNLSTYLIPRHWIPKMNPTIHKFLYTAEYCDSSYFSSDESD", "assay": "TDO cellular assay in frozen SW48 cells", "format": "cell-based", "conditions": "300 uM L-tryptophan, about 48 hours, fluorescence readout"}}, "data": [{"molecule": "O=C(Nc1ccc(C2(C(=O)Nc3ccc(F)cc3)CCC2)cn1)C1CCCCC1", "note": "[Example 15, N-(5-{1-[(4-fluorophenyl)carbamoyl]cyclobutyl}pyridin-2-yl) cyclohexanecarboxamide]", "values": [{"measurement": "IC50", "setting": "IDO1", "result": 2010, "unit": "nM"}, {"measurement": "IC50", "setting": "TDO", "result": "≥ 10", "unit": "µM"}]}]}
